According to patent US6667336B2, “GlyT-1 inhibitors” (NPS Allelix Corp., priority 2002, dated 2003):
Several values for one entry are separate records, joined by “and”; a condition that tells them apart may be missing. Equal values may be shown once. Marks after values point to notes of the source that are not given here.

test system: male CD-1 mice; assay: 5 day chronic oral dosing toxicity study in mice (clinical signs); format: in vivo; parameters: key to Clinical signs (observation code), Day 1, 24 hours / Clinical signs (observation code), Day 2, 24 hours / Clinical signs (observation code), Day 3, 24 hours / Clinical signs (observation code), Day 4, 24 hours / Clinical signs (observation code), Day 5, 24 hours / Clinical signs (observation code), Day 1, 4 hours / Clinical signs (observation code), Day 2, 4 hours / Clinical signs (observation code), Day 3, 4 hours / Clinical signs (observation code), Day 4, 4 hours / Clinical signs (observation code), Day 5, 4 hours: 0: Appeared Normal; 1: Activity (inc./dec.); 2: Sedation/Lethargy; 3: Piloerection; 4: Stereotypy; 5: Soft Stool; 6: Chromodacryorrhea; 7: Epistaxis; 8: Cyanosis; 9: Flaccidity; 10: Respiration; 11: Hunched Posture; 12: Enophthalmia; 13: Exophthalmia; 14: Palpabral Ptosis; 15: Loss of Righting; 16: Chromaturia; 17: Salivation; 18: Lacrimation; 19: Miosis; 20: Mydriasis; 21: Rigidity; 22: Ataxia; 23: Tremors; 24: Convulsions; 25: Catalepsy; 26: Lateral Recumbency; 27: Death; details: 40 mg/kg/day PO, male CD-1 mice, one line per animal
Description: This example illustrated a 5 day chronic oral dosing toxicity study with GlyT1 inhibitors. […] Behavioral observations (clinical signs) and body weights were recorded daily for all compounds tested. Male CD-1 mice were purchased from Charles River Labs (Kingston, N.Y.). The animals weighed between 20-25 grams upon arrival. Animals were acclimatized in a temperature/humidity (72° ±5° F./50%±5%) controlled vivarium, with a common 12 hour light/dark cycle (Lights on 0700 hrs) for 5 days prior to test. All animals were allowed food (Purina Labdiete® Rodent chow # 5001) and water (supplied by Elizabethtown Water Company) ad libitum during the acclimation period and throughout the study. On the day prior to test initiation animals were randomly assigned to groups: All animals chosen for test weighed at least 20 grams and appeared in good condition. Each animal was dosed once daily for 5 days. Animals remained on site for a 3 day recovery period following the chronic dosing period.
A stock concentration of each test compound was prepared fresh on the day of study initiation. Aliquots were diluted to the needed concentrations for daily dosing. Stock solutions were kept in a refrigerator when not in use. Each compound was dissolved in a small amount of distilled water. One equivalent of sodium hydroxide (2 N) may have been added to aid in dissolution of each test agent. Vehicle was then added quantum sufficiat to give the final volume. Final volumes were adjusted to reflect percent free base when appropriate. The vehicle used in this experiment was Hydroxypropyl-β-cyclodextrine (HPCD) Acros, lot 011849601, dissolved in distilled water to form a 10% weight/volume concentration. The pH was adjusted, using sodium hydroxide (2 N), to equal that of the test agents (usually between 8 to 10). All prepared test compounds were either in solution, and clear, or in suspension, and slightly cloudy. Suspensions were mixed immediately prior to use.
All animals were administered either test compound or vehicle Per Os (PO) via 21 gauge gavage needles, in volumes of 10.0 ml/kg. Daily body weights were used to determine individual dosing volumes. All test compounds were weighed on a Denver Instruments analytical balance (model # A-250). Animals were weighed on a top loading Ohaus portable balance model # LS2000.
Animals were assessed for overt behaviors (clinical signs) immediately following administration of test agents, then again at 4 and 24 hours. Animals were assessed for 27 separate clinical signs:
Toxicity data obtained through the assay as described above is provided in Tables 1 to 14 for Compounds Gi to Gxiv inclusive. The animals were observed immediately following administration and again at 4 hours and 24 hours. Observations are reported using the code number from the following chart: […]

SMILES | Clinical signs (observation code), Day 1, 4 hours | Clinical signs (observation code), Day 1, 24 hours | Clinical signs (observation code), Day 2, 4 hours | Clinical signs (observation code), Day 2, 24 hours | Clinical signs (observation code), Day 3, 4 hours | Clinical signs (observation code), Day 3, 24 hours | Clinical signs (observation code), Day 4, 4 hours | Clinical signs (observation code), Day 4, 24 hours | Clinical signs (observation code), Day 5, 4 hours | Clinical signs (observation code), Day 5, 24 hours
Cc1cccc(-c2ccc(/C(=C/CN(C)CC(=O)O)c3ccsc3)cc2)c1 [Compound G(vi), (Z)-N-(1-(4-(3-Methylphenyl)phenyl)-1-(3-thienyl)prop-1-en-3-yl)sarcosine] | 0 | 0 | 0 | 0 | 0 | 0 | 0 | 0 | 0 | 0
CN(C/C=C(/c1ccc(-c2cccs2)cc1)c1ccsc1)CC(=O)O [Compound G(iii), (Z)-N-(1-(4-(2-Thienyl)phenyl)-1-(3-thienyl)prop-1-en-3-yl)sarcosine] | 0 | 0 | 0 | 0 | 0 | 0 | 14 and 0 | 0 | 0 | 0
CN(C/C=C(/c1ccc(-c2ccco2)cc1)c1ccsc1)CC(=O)O [Compound G(iv), (Z)-N-(1-(4-(2-Furyl)phenyl)-1-(3-thienyl)prop-1-en-3-yl)sarcosine] | 0 and 14 | 0 | 0 | 0 | 14 (2×) and 0 | 0 | 0 | 0 | 0 (2×) and 14 | 0
CN(C/C=C(/c1ccc(-c2cccc(C(F)(F)F)c2)cc1)c1ccc(Cl)s1)CC(=O)O [Compound K, reference compound] | 1 and 0 (2×) | 27* | – | – | – | – | – | – | – | –
COc1cccc(-c2ccc(/C(=C/CN(C)CC(=O)O)c3ccsc3)cc2)c1 [Compound G(v), (Z)-N-(1-(4-(3-Methoxyphenyl)phenyl)-1-(3-thienyl)prop-1-en-3-yl)sarcosine] | 0 | 0 | 0 | 0 | 0 | 0 | 0 | 0 | 0 | 0
CN(C/C=C(/c1ccc(-c2ccsc2)cc1)c1cccs1)CC(=O)O [Compound G(ix), (Z)-N-(1-(4-(3-Thienyl)phenyl)-1-(2-thienyl)prop-1-en-3-yl)sarcosine] | 0 | 0 | 0 | 0 | 0 | 0 | 0 | 0 | 0 | 0

same assay, conditions: 5 day oral dosing in mice, tables 1-18

SMILES | Toxicity profile in comparison (compounds of formula 1 vs other GlyT1 inhibitors of similar potency)
CN(C/C=C(/c1ccc(-c2cccc(C(F)(F)F)c2)cc1)c1ccc(Cl)s1)CC(=O)O [Compound K, reference compound] | higher toxicity profile
